The results in this text go back to patent publication US11174253B2, “Compound and pharmaceutical composition containing the same” (ALPHALA CO., LTD., priority 2017, dated 2021).

In the first assay the test system is hepatocellular carcinoma cell line Hep3B. In words: Growth inhibition of Hep3B cells, 48 hr treatment, Hoechst 33342 nucleus count (GE InCell 2200). The assay is classed as cell-based. Particulars: Homo sapiens, Table 1, ratio of number of tumor cells treated with 10 μM compound to non-treated cells. How it is done:
The potency of selected compounds was defined by the growth inhibition ability to the hepatocellular carcinoma cell line Hep3B. The Hep3B cells were treated with selected compounds for 48 hr under 37° C., 5% CO2, and 95% relative humidity.
The number of treated cells was determined by GE InCell 2200 system, and treated cells were stained with Hoechst 33342 which can reveal the remained nucleus in culture plate. The proportion of survival cells then were calculated with the ratio of treated/non-treated cells. The growth inhibition/cytotoxic effect of selected compounds were evaluated by the following protocol of NCI-60 screening platform. The human tumor cell lines are plating on a 96 well plate in a fixed density 24 hr prior compound treatment. Compounds with multiple concentrations are then added into each well for further 48 hr incubation. Cell viability is assessed by MTS method and the potency of compound is represented by GI50 and LC50 calculated by MTS result.
Herein, the “Ratio in 10 μM (%)” in the following Tables 1-6 refers to the ratio of the number of tumor cells treated with 10 μM of selected compounds to the number of non-treated tumer cells.
For `CCOc1ccc(-c2nnc(N(C)C(=O)Cc3ccc4nc(N)sc4c3)s2)c(OCC)c1` [Compound 1-36, 2-(2-aminobenzo[d]thiazol-6-yl)-N-(5-(2,4-diethoxyphenyl)-1,3,4-thiadiazol-2-yl)-N-methylacetamide], the viability at 10 µM was determined as 53%.

Consider `CCOc1cc(OCC)c(-c2nnc(NC(=O)Cc3ccc4nc(N)sc4c3)s2)c(OCC)c1` [Compound 1-24, 2-(2-aminobenzo[d]thiazol-6-yl)-N-(5-(2,4,6-triethoxyphenyl)-1,3,4-thiadiazol-2-yl)acetamide], for which the viability at 10 µM came to 88%.

Take `CCOc1ccc(-c2nnc(NC(=O)Cc3ccc4nc(N)sc4c3)s2)nc1` [Compound 1-30, 2-(2-aminobenzo[d]thiazol-6-yl)-N-(5-(5-ethoxypyridin-2-yl)-1,3,4-thiadiazol-2-yl)acetamide]: the viability at 10 µM was determined as 37%.

Staying with this assay, now noted: Homo sapiens, Table 3, ratio of number of tumor cells treated with 10 μM compound to non-treated cells.
Turning to `CCOc1ccc(-c2nc(NC(=O)Cc3ccc4nc(N)sc4c3)sc2Oc2ccccc2)cc1` [Compound 3-13, 2-(2-aminobenzo[d]thiazol-6-yl)-N-(4-(4-ethoxyphenyl)-5-phenoxythiazol-2-yl)acetamide], the viability at 10 µM was found to be 58%.

The same assay, now with this note: Homo sapiens, Table 5, ratio of number of tumor cells treated with 10 μM compound to non-treated cells.
Regarding `CCCOc1ccc(-c2nc(NC(=O)c3ccc([N+](=O)[O-])s3)sc2Oc2ccccc2F)cc1` [Compound 5-58, N-(5-(2-fluorophenoxy)-4-(4-propoxyphenyl)thiazol-2-yl)-5-nitrothiophene-2-carboxamide], the viability at 10 µM is 43%.

In the case of `CCCOc1ccc(Oc2sc(NC(=O)c3ccc([N+](=O)[O-])s3)nc2-c2ccc(C(C)(C)C)cc2)cc1` [Compound 5-95, N-(4-(4-(tert-butyl)phenyl)-5-(4-propoxyphenoxy)thiazol-2-yl)-5-nitrothiophene-2-carboxamide], the viability at 10 µM amounted to 38%.

Consider `CCCCOc1ccc(-c2nc(NC(=O)c3ccc([N+](=O)[O-])s3)sc2Oc2ccc(C(C)(C)CC)cc2)cc1` [Compound 5-98, N-(4-(4-butoxyphenyl)-5-(4-(tert-pentyl)phenoxy)thiazol-2-yl)-5-nitrothiophene-2-carboxamide], for which the viability at 10 µM is 50%.

As to `CCCCOc1ccc(-c2nc(NC(=O)c3ccc([N+](=O)[O-])s3)sc2Oc2ccc(Br)cc2)cc1` [Compound 5-86, N-(5-(4-bromophenoxy)-4-(4-butoxyphenyl)thiazol-2-yl)-5-nitrothiophene-2-carboxamide], the viability at 10 µM was determined as 24%.

`CCOc1ccc(-c2nc(NC(=O)c3ccc([N+](=O)[O-])s3)sc2Oc2ccccc2F)cc1` [Compound 5-57, N-(4-(4-ethoxyphenyl)-5-(2-fluorophenoxy)thiazol-2-yl)-5-nitrothiophene-2-carboxamide]: the viability at 10 µM turned out to be 43%.

For the molecule `CCCCc1ccc(-c2nc(NC(=O)c3ccc([N+](=O)[O-])s3)sc2Oc2ccc(C(C)(C)CC)cc2)cc1` [Compound 5-104, N-(4-(4-butylphenyl)-5-(4-(tert-pentyl)phenoxy)thiazol-2-yl)-5-nitrothiophene-2-carboxamide], the viability at 10 µM turned out to be 56%.

For the molecule `CCCCOc1ccc(-c2nc(NC(=O)c3ccc([N+](=O)[O-])s3)sc2Oc2ccc(C#N)cc2)cc1` [Compound 5-91, N-(4-(4-butoxyphenyl)-5-(4-cyanophenoxy)thiazol-2-yl)-5-nitrothiophene-2-carboxamide], the viability at 10 µM is 46%.

Take `NCCCCCOc1ccc(-c2nc(NC(=O)c3ccc([N+](=O)[O-])s3)sc2Oc2ccccc2)cc1` [Compound 5-92, N-(4-(4-((5-aminopentyl)oxy)phenyl)-5-phenoxythiazol-2-yl)-5-nitrothiophene-2-carboxamide]: the viability at 10 µM amounted to 46%.

For `Cc1cc(Oc2sc(NC(=O)c3ccc([N+](=O)[O-])s3)nc2-c2ccc(C(C)(C)C)cc2)cc(C)c1Br` [Compound 5-99, N-(5-(4-bromo-3,5-dimethylphenoxy)-4-(4-(tert-butyl)phenyl)thiazol-2-yl)-5-nitrothiophene-2-carboxamide], the viability at 10 µM worked out at 40%.

With `CCCOc1ccc(-c2nc(NC(=O)c3ccc([N+](=O)[O-])s3)sc2Oc2ccc(Cl)c(Cl)c2)cc1` [Compound 5-44, N-(5-(3,4-dichlorophenoxy)-4-(4-propoxyphenyl)thiazol-2-yl)-5-nitrothiophene-2-carboxamide], the viability at 10 µM came out at 41%.

As to `CCOc1ccc(-c2nc(NC(=O)c3ccc([N+](=O)[O-])s3)sc2Oc2ccccc2)cn1` [Compound 5-51, N-(4-(6-ethoxypyridin-3-yl)-5-phenoxythiazol-2-yl)-5-nitrothiophene-2-carboxamide], the viability at 10 µM worked out at 43%.

Turning to `CCCc1ccc(-c2nc(NC(=O)c3ccc([N+](=O)[O-])s3)sc2Oc2ccccc2)cc1` [Compound 5-77, 5-nitro-N-(5-phenoxy-4-(4-propylphenyl)thiazol-2-yl)thiophene-2-carboxamide], the viability at 10 µM amounted to 33%.

As to `CCCOc1ccc(-c2nc(NC(=O)c3ccc([N+](=O)[O-])s3)sc2Oc2cccnc2)cc1` [Compound 5-13, 5-nitro-N-(4-(4-propoxyphenyl)-5-(pyridin-3-yloxy)thiazol-2-yl)thiophene-2-carboxamide], the viability at 10 µM was found to be 53%.

Still in this assay, the particulars now being: Homo sapiens, Table 6, ratio of number of tumor cells treated with 10 μM compound to non-treated cells.
Turning to `CCOc1ccc(-c2nc(NC(=O)c3ccc([N+](=O)[O-])s3)sc2N(C)c2ccccc2)cc1` [Compound 6-28, N-(4-(4-ethoxyphenyl)-5-(methyl (phenyl)amino)thiazol-2-yl)-5-nitrothiophene-2-carboxamide], the viability at 10 µM was 31%.

Regarding `CCOc1cc(-c2sc(NC(=O)c3ccc([N+](=O)[O-])s3)nc2-c2ccc(C)cc2)ccc1Br` [Compound 6-20, N-(5-(4-bromo-3-ethoxyphenyl)-4-(p-tolyl)thiazol-2-yl)-5-nitrothiophene-2-carboxamide], the viability at 10 µM was found to be 45%.

In the case of `Cc1ccc(-c2nc(NC(=O)c3ccc([N+](=O)[O-])s3)sc2-c2cccc([N+](=O)[O-])c2)cc1` [Compound 6-3, 5-nitro-N-(5-(3-nitrophenyl)-4-(p-tolyl)thiazol-2-yl)thiophene-2-carboxamide], the viability at 10 µM came to 84%.

For `Cc1ccc(-c2nc(NC(=O)c3ccc([N+](=O)[O-])s3)sc2-c2ccc(F)cc2)cc1` [Compound 6-6, N-(5-(4-fluorophenyl)-4-(p-tolyl)thiazol-2-yl)-5-nitrothiophene-2-carboxamide], the viability at 10 µM stood at 48%.

Turning to `CC(C)(C)c1ccc(-c2nc(NC(=O)c3ccc([N+](=O)[O-])s3)sc2-c2ccccc2F)cc1` [Compound 6-48, N-(4-(4-(tert-butyl)phenyl)-5-(2-fluorophenyl)thiazol-2-yl)-5-nitrothiophene-2-carboxamide], the viability at 10 µM was 45%.

`CC(C)(C)c1ccc(-c2nc(NC(=O)c3ccc([N+](=O)[O-])s3)sc2-c2cccc(F)c2)cc1` [Compound 6-41, N-(4-(4-(tert-butyl)phenyl)-5-(3-fluorophenyl)thiazol-2-yl)-5-nitrothiophene-2-carboxamide]: the viability at 10 µM is 36%.

`CCOc1ccc(-c2nc(NC(=O)c3ccc([N+](=O)[O-])s3)sc2Cc2cccc(F)c2)cc1` [Compound 6-36, N-(4-(4-ethoxyphenyl)-5-(3-fluorobenzyl)thiazol-2-yl)-5-nitrothiophene-2-carboxamide]: the viability at 10 µM came to 41%.

In the case of `CC(C)(C)c1ccc(-c2nc(NC(=O)c3ccc([N+](=O)[O-])s3)sc2-c2ccccc2Cl)cc1` [Compound 6-55, N-(4-(4-(tert-butyl)phenyl)-5-(2-chlorophenyl)thiazol-2-yl)-5-nitrothiophene-2-carboxamide], the viability at 10 µM worked out at 30%.
